Test results from PubChem BioAssay AID248 (DTP/NCI, 2004).
Where “and” joins values, the source holds several entries; their conditions need not be identical. Identical values can stand only once. Toxic doses and inconclusive results are not listed.

Tested on: L1210 leukemia ip in BDF1 mice, survival T/C
Test: NCI In Vivo Anticancer Drug Screen. Data for tumor model L1210 Leukemia (intraperitoneal) in B6D2F1 (BDF1) mice
Conditions: endpoint: mean survival time, higher = longer survival
Outline: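 Tumor cells were implanted, animals were treated, and survival was followed. The result divides the treated measurement by the vehicle-control measurement.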

[1] = dose: 100.0 mg/kg/injection, schedule: Q04DX003 (ip), vehicle: Klucel (hydroxypropylcellulose) (HPC)
[2] = dose: 200.0 mg/kg/injection, schedule: Q04DX003 (ip), vehicle: Klucel (hydroxypropylcellulose) (HPC)
[3] = dose: 25.0 mg/kg/injection, schedule: Q01DX009 (ip), vehicle: Klucel (hydroxypropylcellulose) (HPC)
[4] = dose: 100.0 mg/kg/injection, schedule: Q01DX009 (ip), vehicle: Klucel (hydroxypropylcellulose) (HPC)
[5] = dose: 100.0 mg/kg/injection, schedule: Q04DX002 (ip), vehicle: Klucel (hydroxypropylcellulose) (HPC)
[6] = dose: 200.0 mg/kg/injection, schedule: Q01DX009 (ip), vehicle: Klucel (hydroxypropylcellulose) (HPC)
[7] = dose: 200.0 mg/kg/injection, schedule: Q04DX002 (ip), vehicle: Klucel (hydroxypropylcellulose) (HPC)
[8] = dose: 400.0 mg/kg/injection, schedule: Q04DX002 (ip), vehicle: Klucel (hydroxypropylcellulose) (HPC)
[9] = dose: 400.0 mg/kg/injection, schedule: Q04DX003 (ip), vehicle: Klucel (hydroxypropylcellulose) (HPC)
[10] = dose: 100.0 mg/kg/injection, schedule: Q01DX009 (ip), vehicle: saline with Tween-80
[11] = dose: 200.0 mg/kg/injection, schedule: Q01DX009 (ip), vehicle: saline with Tween-80
[12] = dose: 400.0 mg/kg/injection, schedule: Q01DX009 (ip), vehicle: saline with Tween-80
[13] = dose: 100.0 mg/kg/injection, schedule: Q01DX009 (ip), vehicle: other
[14] = dose: 200.0 mg/kg/injection, schedule: Q01DX009 (ip), vehicle: other
[15] = dose: 400.0 mg/kg/injection, schedule: Q01DX009 (ip), vehicle: other
[16] = dose: 50.0 mg/kg/injection, schedule: Q01DX001 (ip), vehicle: carboxymethylcellulose (CMC)
[17] = dose: 100.0 mg/kg/injection, schedule: Q01DX001 (ip), vehicle: carboxymethylcellulose (CMC)
[18] = dose: 200.0 mg/kg/injection, schedule: Q01DX001 (ip), vehicle: carboxymethylcellulose (CMC)
[19] = dose: 100.0 mg/kg/injection, schedule: Q04DX003 (ip), vehicle: other
[20] = dose: 200.0 mg/kg/injection, schedule: Q04DX003 (ip), vehicle: other
[21] = dose: 400.0 mg/kg/injection, schedule: Q04DX003 (ip), vehicle: other

CNCCCNCC1C(c2ccccc2)C1c1ccccc1 (stereo not drawn)
T/C (dose: 25.0 mg/kg/injection, schedule: Q04DX002 (ip), vehicle: saline): 100 % of control and 90 % of control | T/C (dose: 50.0 mg/kg/injection, schedule: Q04DX002 (ip), vehicle: saline): 103 % of control | T/C (dose: 100.0 mg/kg/injection, schedule: Q04DX002 (ip), vehicle: saline): 86 % of control and 97 % of control

CC(=O)NNc1ccccc1Cl
T/C [1]: 96 % of control | T/C [2]: 117 % of control

Cc1cc(C)c(NC(=O)Nc2ccccc2F)cc1C
T/C [3]: 98 % of control | T/C (dose: 50.0 mg/kg/injection, schedule: Q01DX009 (ip), vehicle: Klucel (hydroxypropylcellulose) (HPC)): 93 % of control | T/C [4]: 96 % of control | T/C [5]: 102 % of control | T/C [6]: 89 % of control | T/C [7]: 91 % of control | T/C [8]: 115 % of control

O=C1C2C3CC(c4ccccc43)C2N1S(=O)(=O)Cl (stereo not drawn)
T/C [5]: 105 % of control | T/C [7]: 105 % of control | T/C [8]: 105 % of control

Cc1ccc(-c2nc(N)[nH]c(=O)c2CCCN(c2ccccc2)S(=O)(=O)c2ccc(C)cc2)cc1
T/C [1]: 102 % of control | T/C [2]: 101 % of control | T/C [9]: 102 % of control

O=Cc1c(Cl)[nH]c2ccccc12
T/C (dose: 50.0 mg/kg/injection, schedule: Q04DX002 (ip), vehicle: Klucel (hydroxypropylcellulose) (HPC)): 90 % of control | T/C [5]: 93 % of control | T/C [7]: 101 % of control

O=C1c2ccccc2C[CH]1[Hg][Cl] (stereo not drawn)
T/C (dose: 5.0 mg/kg/injection, schedule: Q01DX001 (ip), vehicle: saline): 103 % of control | T/C (dose: 10.0 mg/kg/injection, schedule: Q01DX001 (ip), vehicle: saline): 102 % of control

COC1OC2COc3ccccc3OC2C2NC12 (stereo not drawn)
T/C [5]: 98 % of control | T/C [7]: 105 % of control | T/C [8]: 102 % of control

Cc1ccc(C2(C)CCC(=O)c3cc(C)c(C)cc32)cc1C (stereo not drawn)
T/C (dose: 50.0 mg/kg/injection, schedule: Q01DX001 (ip), vehicle: saline): 97 % of control | T/C (dose: 100.0 mg/kg/injection, schedule: Q01DX001 (ip), vehicle: saline): 100 % of control | T/C (dose: 200.0 mg/kg/injection, schedule: Q01DX001 (ip), vehicle: saline): 94 % of control | T/C (dose: 400.0 mg/kg/injection, schedule: Q01DX001 (ip), vehicle: saline): 103 % of control

CN(N)P(=S)(c1ccccc1)N(C)N
T/C (dose: 6.25 mg/kg/injection, schedule: Q01DX009 (ip), vehicle: Klucel (hydroxypropylcellulose) (HPC)): 97 % of control | T/C (dose: 12.5 mg/kg/injection, schedule: Q01DX009 (ip), vehicle: Klucel (hydroxypropylcellulose) (HPC)): 100 % of control | T/C (dose: 12.5 mg/kg/injection, schedule: Q04DX003 (ip), vehicle: Klucel (hydroxypropylcellulose) (HPC)): 97 % of control | T/C [3]: 94 % of control | T/C (dose: 25.0 mg/kg/injection, schedule: Q04DX003 (ip), vehicle: Klucel (hydroxypropylcellulose) (HPC)): 92 % of control

CN(C)/N=N/c1nc[nH]c1C#N
T/C [10]: 107 % of control | T/C (dose: 100.0 mg/kg/injection, schedule: Q04DX003 (ip), vehicle: saline with Tween-80): 110 % of control | T/C [11]: 115 % of control | T/C (dose: 200.0 mg/kg/injection, schedule: Q04DX003 (ip), vehicle: saline with Tween-80): 98 % of control | T/C (dose: 400.0 mg/kg/injection, schedule: Q04DX003 (ip), vehicle: saline with Tween-80): 102 % of control

O=C(O)c1cc([N+](=O)[O-])ccc1F
T/C (dose: 75.0 mg/kg/injection, schedule: Q01DX001 (ip), vehicle: acetone): 95 % of control | T/C (dose: 150.0 mg/kg/injection, schedule: Q01DX001 (ip), vehicle: acetone): 103 % of control

CCC(C#N)(CCN(CC=C(C)C)CC=C(C)C)c1cccc2ccccc12 (stereo not drawn)
T/C [1]: 96 % of control

CS(=O)(=O)OCCN(CCOS(C)(=O)=O)c1ccc(C=Nc2cccc(Cl)c2)c(Cl)c1
T/C [1]: 106 % of control | T/C [2]: 105 % of control | T/C [9]: 113 % of control

CC(=O)NC(=O)CC(O)(c1ccccc1)c1ccccc1
T/C [10]: 96 % of control | T/C [11]: 91 % of control | T/C [12]: 92 % of control

CCCCCCCC(=O)NC1CCC(C(C)(C)C)CC1 (stereo not drawn)
T/C [13]: 100 % of control | T/C [14]: 97 % of control | T/C [15]: 106 % of control

CN(CCO)C1=C(N2CC2)C(=O)C(N(C)CCO)=C(N2CC2)C1=O
T/C (dose: 0.12 mg/kg/injection, schedule: Q01DX001 (ip), vehicle: saline): 103 % of control | T/C (dose: 0.12 mg/kg/injection, schedule: Q01DX009 (ip), vehicle: saline): 104 % of control and 105 % of control | T/C (dose: 0.24 mg/kg/injection, schedule: Q04DX003 (ip), vehicle: saline): 119 % of control | T/C (dose: 0.25 mg/kg/injection, schedule: Q01DX001 (ip), vehicle: saline): 100 % of control | T/C (dose: 0.25 mg/kg/injection, schedule: Q01DX009 (ip), vehicle: saline): 121 % of control | T/C (dose: 0.5 mg/kg/injection, schedule: Q01DX001 (ip), vehicle: saline): 112 % of control | T/C (dose: 0.55 mg/kg/injection, schedule: Q04DX003 (ip), vehicle: saline): 122 % of control | T/C (dose: 1.0 mg/kg/injection, schedule: Q01DX009 (ip), vehicle: saline): 184 % of control and 214 % of control | T/C (dose: 1.5 mg/kg/injection, schedule: Q04DX003 (ip), vehicle: saline): 111 % of control | T/C (dose: 3.0 mg/kg/injection, schedule: Q04DX003 (ip), vehicle: saline): 97 % of control

NNc1ccccc1Cl
T/C [16]: 108 % of control | T/C (dose: 75.0 mg/kg/injection, schedule: Q01DX001 (ip), vehicle: other): 102 % of control | T/C [17]: 97 % of control | T/C (dose: 150.0 mg/kg/injection, schedule: Q01DX001 (ip), vehicle: other): 93 % of control | T/C [18]: 108 % of control

C#CCn1c(=O)c2c(ncn2C)n(C)c1=O
T/C (dose: 6.25 mg/kg/injection, schedule: Q04DX003 (ip), vehicle: saline): 100 % of control

CCCCCCC/C=N/N=C/CCCCCCC
T/C [13]: 97 % of control | T/C [19]: 97 % of control | T/C [14]: 100 % of control | T/C [20]: 97 % of control | T/C [15]: 112 % of control | T/C [21]: 109 % of control

O=C(COc1cccc(Cl)c1)NCc1cccc(NC(=O)c2cccc(S(=O)(=O)F)c2)c1
T/C (dose: 100.0 mg/kg/injection, schedule: Q01DX001 (ip), vehicle: gum acacia): 97 % of control | T/C (dose: 200.0 mg/kg/injection, schedule: Q01DX001 (ip), vehicle: gum acacia): 93 % of control | T/C (dose: 400.0 mg/kg/injection, schedule: Q01DX001 (ip), vehicle: gum acacia): 98 % of control

O=C(c1ccccc1)c1cc(Cl)ccc1N1C(=O)C=CC1=O
T/C (dose: 25.0 mg/kg/injection, schedule: Q04DX002 (ip), vehicle: saline with Tween-80): 90 % of control

CN(C)Cc1c(CC(O)(c2ccccc2)c2ccccc2)ccc2ccccc12
T/C [16]: 96 % of control | T/C [17]: 100 % of control | T/C [18]: 96 % of control | T/C (dose: 400.0 mg/kg/injection, schedule: Q01DX001 (ip), vehicle: carboxymethylcellulose (CMC)): 105 % of control

CC(C)=NNC(=O)c1ccc(Cl)cc1
T/C [10]: 95 % of control | T/C [11]: 106 % of control | T/C [12]: 116 % of control

O=C1NC(=O)C(CSCc2ccccc2)(CSCc2ccccc2)N1
T/C (dose: 50.0 mg/kg/injection, schedule: Q01DX009 (ip), vehicle: saline with Tween-80): 94 % of control | T/C [10]: 92 % of control and 102 % of control | T/C [11]: 94 % of control and 97 % of control | T/C [12]: 100 % of control

CC(C)=COC(=N)C(N)=O
T/C [19]: 100 % of control | T/C [20]: 97 % of control | T/C [21]: 115 % of control

NS(=O)(=O)c1ccc(NC(=O)Nc2cccc(C(F)(F)F)c2)cc1
T/C [4]: 97 % of control | T/C [5]: 94 % of control | T/C [6]: 91 % of control | T/C [7]: 91 % of control | T/C (dose: 400.0 mg/kg/injection, schedule: Q01DX009 (ip), vehicle: Klucel (hydroxypropylcellulose) (HPC)): 94 % of control | T/C [8]: 97 % of control
